In US7074925B1, “N-substituted derivatives of 5-oxyiminobarbituric acid” (priority 1998, dated 2006):
Marks after values point to notes of the source that are not given here.

How the values were obtained:
[1] = system: Herpes virus of the type I (HSV-I/Leningrad/248/88); assay: Effect on Herpes virus, cytopathogenic action on Vero cells; assay type: cell-based, Herpes Simplex virus; conditions: for Quantity of the unchanged cells (number of cells in 100 visual fields): Vero cells, 36 hours, cell control 10000; for percentage of protection of cells from virus: compared to the control of cell culture
Description: An antiviral activity was determined with respect to Herpes virus of the type I (HSV-I/Leningrad/248/88) by means of commonly accepted method. Viruses were grown on a continuous culture of Vero cells that have been received from the Bank of Cell Cultures of the Institute of Cytology of the Russian Academy of Science.
A virus in a final concentration of […] and the claimed compounds dissolved in DMSO in final concentrations of 100, 10 and 1 mg/l were added to cells that were grown on the RPMI-1640 medium with 10% fetal calf serum and placed into wells of the 96-well plate. 5 separate wells were used for each of tested concentrations of an agent. The plate was incubated during 60 minutes at 38° C. in a CO2-incubator. After the incubation, the virus was removed and then a fresh medium containing claimed compounds in used concentrations was again introduced.
Results were evaluated basing on presence of cytopathogenic action on the cells after 36 hours of incubation at 38° C. in the CO2-incubator.
The next controls were used in the experiment: • 1. Control of cell culture (capability to grow properly) • 2. Control of the virus (evaluation of capability for reproduction) • 3. Control of an antiviral activity of an antiviral drug Acyclovir • 4. Control of compounds (toxicity of compounds) • 5. Control of a solvent (DMSO) for toxicity.
To estimate a cytopathic action of the virus, a quantity of the unchanged cells was calculated in 100 visual fields formed by a special net of an eyepiece of the inverted microscope.

[2] = system: C.trachomatis D323; assay: Action on Chlamydia trachomatis in cell culture; assay type: cell-based; conditions: 100 mg/l; for Number of unchanged cells: 48 hours, counted in 100 visual fields, cell control 8.000, infected cells 6.000
Description: The antimicrobial activity of the claimed compounds was studied relative to C.trachomatis […], which is a standard strain from the collection of the chair of microbiology of St. Petersburg State Pavlov Medical University. […] Cell cultures McCoy and L929 obtained from the Institute of Cytology of RAS were used in this work. Cells were grown in flasks made of neutral glass in the medium RPMI-1640 with the addition of 10% of fetal calf serum. The test was performed in glass (non-toxic) flat-bottom flasks with cover glasses. The cells were introduced into the medium in the final concentration of […]. […] Simultaneously, tested compounds in a final concentration of 100 mg/l were added to the cells. The sample was centrifuged at 2400 G during 60 minutes at room temperature and incubated at 37° C. for 2 hours. […] The samples were doubled using the medium without cycloheximide so as to exclude its effect on the investigated compounds. The samples were incubated in a CO2-incubator for 48 hours. […] The effect of the action of substance was determined by analysis of the monolayer state and number of cells with CPI when compared with the control (cell culture infected with C.trachomatis […]); in doing so, the number of unchanged cells, that were counted in 100 visual fields obtained using the special net of the microscope eyepiece, was taken into consideration. […] Control of cell culture: morphology of cells and state of monolayer correspond to the given type of the cells; control of chlamydia growth in the cell culture: presence of CPI in the monolayer; control of action of standard antimicrobial agent: reduction of number of CPI in the monolayer as compared to the previous control; control of toxicity of the claimed compounds: toxicity is absent; control of action of solvents: toxic action on cells is absent.

[3] = system: primary culture of human lymphocytes (IFN-α production); assay: Interferon-inducing activity in primary culture of human lymphocytes; assay type: cell-based
Description: Interferon synthesis induction caused by the claimed compounds was conducted on a primary culture of human lymphocytes (it is these cells in a human organism that are the main producers of interferons). To obtain lymphocyte culture, fresh blood (within 12 hours after sampling) from healthy donors (not of group II) was used. To separate lymphocytes, heparinized blood obtained from healthy donor was centrifuged in a density gradient of ficoll-verografin of […] in order to extract a fraction of immunocompetent cells. This fraction was selected and diluted with the nutrient medium RPMI-1640, containing 5% of fetal calf serum, 0.3 mg/ml of L-glutamin, 100 un/ml of penicillin, and […] of streptomycin. The concentration of lymphocytes was considered after dying them with methylene blue and calculation of cell number in Goryaev chamber. Initial solutions of the claimed compounds were diluted with the nutrient medium RPMI-1640 so that the final concentrations of the compounds, which were obtained after introduction of lymphocyte suspension, constituted the raw: 100 μg/ml, 10 μg/ml, 1 μg/ml. The final concentration of lymphocytes in the induction mixture was 3×10^6 cell/ml.
In parallels to the test samples the following controls were done: • 1). Control of spontaneous production of interferons (IFN) by lymphocytes. • 2). […] Control of spontaneous production of interferons in presence of DMSO taken in an amount corresponding to the test samples.
Control and test samples were incubated for 24 hours at the temperature of 37° C. After incubation, the samples were centrifuged at 2,000 G to deposit cell elements, and IFN-containing supernatant was separate out of samples; then the supernatant was analyzed for the quantitative content of IFN. Cell deposition was resuspended in the previous volume of nutrient medium, coloured with vital dye trypan blue, and cell number was counted in the Goryaev chamber (as described above) to determine cytotoxic action of the compounds. The quantitative determination of content of IFN in control and test samples was conducted using the immunoenzyme test system Pro Con IF2 Plus, that is intended for determination of IFN-α, which is produced by TOO “Protein contour”. The solid-phase immunoenzyme method, utilizing horse radish peroxidase as an indicator enzyme, was used to determine the quantity of interferon in the samples. Activity of the bonded peroxidase was measured using an automatic photometer for microplates with a microprocessor at the wavelength of 450 nm.
Based on the obtained results, a calibrating curve was formed, which allows to obtain data expressed in international units (IU) of activity, using the microprocessor of the automatic photometer. The results of the analysis are expressed in IU of activity of IFN per ml in the given induction system, which contains 3×10^4 lymphocyte/ml. Each test and control point was investigated in four parallels.
Controls of immunoenzyme reaction: • 1. Control of DMSO with a nutrient medium. • 2. Control of system components (according to an instruction).
The obtained data were undergone a statistical analysis using t-criterion, and calculation of the confident interval of probability at p=0.05 was carried out. Coincidence of results in the parallel tests was analyzed.

[4] = system: Human's platelet aggregation; assay: Antiaggregational properties, ADP-induced platelet aggregation; assay type: cell-based; conditions: Homo sapiens, Platelet, ADP 2.5 μmol/l
Text: Human's platelet aggregation was investigated in plasma of healthy 50±3 years donors that was enriched by thrombocytes, by means of aggregometer FRM-1. […] Magnitude of a maximum non-reversible platelet aggregation in the control samples (solvent) was adopted as 100%, and that in tested samples was counted as the percentage compared to the control.

[5] = Hypoglycemic activity after glucose load; assay type: in vivo, mice; conditions: Glibenclamide I mg/kg
Description: Test substance (100 mg/kg) was perorally administrated to fasted mice, and, immediately after that, solution of glucose (1000 mg/kg) was administrated subcutaneously. Glucose content in blood was determined in a hour by the orthotoluidine method. Reducing of glucose level by more than 20% relative to control animals indicated hypoglycemic properties. Glibenclamide (I mg/kg) was utilized as a reference agent.

[6] = Antiulcerous action, water immersion stress with immobilization; assay type: in vivo, rats; conditions: 20 mg/kg perorally
Description: Antiulcerous activity of substances was tested on a model of experimental water immersion stress with immobilization. […] After that, gastric mucous membrane was investigated, number and sizes of ulcers were counted, ulceration index was determined (an average sum of ulcer lengths per one animal in a group).

Compound | Quantity of the unchanged cells (number of cells in 100 visual fields) ([1]; compound 100 μg/ml) | percentage of protection of cells from virus ([1]; compound 100 μg/ml) | percentage of cell protection from infection [2] | Number of unchanged cells [2] | Content of IFN in induction mixture after 24-hour incubation ([3]; substance 1 mg/l) [IU/3 × 10^4 lymph./ml] | Content of IFN in induction mixture after 24-hour incubation ([3]; substance 10 mg/l) [IU/3 × 10^4 lymph./ml] | Content of IFN in induction mixture after 24-hour incubation ([3]; substance 100 mg/l) [IU/3 × 10^4 lymph./ml] | other results
COc1ccc(CN2C(=O)NC(=O)C(=NO)C2=O)cc1 [XIII] | 4500 | (45%) | (50%) | 7.000 |  |  |  | 
CCN1C(=O)C(=NO)C(=O)NC1=S [XXXVI] |  |  |  |  | 5.2 ± 1.0 | 6.8 ± 1.5 | 26.0 ± 1.4 | 
O=C1NC(=O)N(CCc2ccc(F)cc2)C(=O)C1=NO [XV] | 4000 | (40%) |  |  |  |  |  | 
Nc1nc2c(ncn2COCCO)c(=O)[nH]1 [Acyclovir, reference compound] |  |  |  |  |  |  |  | Quantity of the unchanged cells (number of cells in 100 visual fields) ([1]; Acyclovir): 8000*; percentage of protection of cells from virus ([1]; Acyclovir): (80%)**
O=C1NC(=O)N(Cc2ccccc2)C(=O)C1=NO [XI] | 3500 | (35%) |  |  | 32.8 ± 1.0 | 53.5 ± 1.2 | 60 ± 1.8 | 
CC(=O)Oc1ccccc1C(=O)O [Aspirin, aspirin, reference compound] |  |  |  |  |  |  |  | inhibition at 9 µg/mL ([4]; 9 μg/ml): 100%
O=C1NC(=S)N(c2ccc(Cl)cc2)C(=O)C1=NO [XLVI] |  |  |  |  | 6.6 ± 0.8 | 24.4 ± 1.4 | 52.1 ± 1.8 | 
O=C1NC(=O)N(CCC2=CCCCC2)C(=O)C1=NO [X] |  |  |  |  | 8.6 ± 1.0 | 11.0 ± 1.2 | 30 ± 1.8 | 
COc1ccc(Cl)cc1C(=O)NCCc1ccc(S(=O)(=O)NC(=O)NC2CCCCC2)cc1 [Glibenclamide, reference compound] |  |  |  |  |  |  |  | % change of glucose relative to glucose control [5]: −40%; Glucose in blood ([5]; glucose 1000 mg/kg s.c., after one hour): 4.95 ± 0.31 mmol/L
Nc1ncnc2c1ncn2[C@@H]1O[C@H](CO)[C@@H](O)[C@H]1O [Adenosine, reference compound] |  |  |  |  |  |  |  | inhibition at 5 µg/mL ([4]; 5 μg/ml): 100%
O=C1NC(=O)N(c2cccc3ccccc23)C(=O)C1=NO [XXXIV] |  |  | (35%) | 6.700 |  |  |  | 
C=CCN1C(=O)C(=NO)C(=O)NC1=S [XXXIX] |  |  | (65%) | 7.300 |  |  |  | 
O=C1NC(=O)N(Cc2ccc(F)cc2)C(=O)C1=NO [XII] | 4000 | (40%) | (30%) | 6.600 |  |  |  | 
CN(C)CCCN1c2ccccc2Sc2ccc(Cl)cc21 [Chlorpromazine, reference compound] |  |  |  |  |  |  |  | % of animals with ulcers ([6]; rats, 4 hours stress, control 100): 33%; % of reducing number of ulcers ([6]; versus control): −96%; % of reducing ulceration index ([6]; versus control): −97%; Number of lesions ([6]; control 8.3 ± 2.5): 0.3 ± 0.3; ulceration index ([6]; control 10.5 ± 5.7): 0.3 ± 0.3
CC(C)(C)N1C(=O)NC(=O)C(=NO)C1=O [III] | 5000 | (50%) | (50%) | 7.000 | 4.2 ± 0.8 | 23.5 ± 1.2 | 65 ± 1.2 | 
CCOc1ccc(N2C(=O)NC(=O)C(=NO)C2=O)cc1 [XXX] | 3000 | (30%) | (35%) | 6.700 |  |  |  | 
CC(Cc1ccccc1)N1C(=O)NC(=O)C(=NO)C1=O (stereo not drawn) [XVII] |  |  | (35%) | 6.700 | 6.2 ± 0.5 | 13.0 ± 2.5 | 19.2 ± 1.2 | 
Cc1ccccc1N1C(=O)NC(=O)C(=NO)C1=O [XX] | 3500 | (35%) |  |  |  |  |  | 
